Calls of active or inactive are those of the source. No cut-off for these calls is given here.
Legend:
[1] = Cytotoxicity against mouse 3T3L1 cells assessed as cell viability at 10 uM by CCK8 assay relative to control; assay type: cell-based; details: 3T3-L1 cells, read-out: Activity
[2] = Cytotoxicity against mouse 3T3L1 cells assessed as cell viability at 0.3 uM by CCK8 assay relative to control; assay type: cell-based; details: 3T3-L1 cells, read-out: Activity
3T3-L1 [3] = experiment: Adipogenetic activity in mouse 3T3L1 cells assessed as increase in triglyceride level at 10 uM relative to control; assay type: functional
[4] = Cytotoxicity against mouse 3T3L1 cells assessed as cell viability at 1 uM by CCK8 assay relative to control; assay type: cell-based; details: 3T3-L1 cells, read-out: Activity
3T3-L1 [5] = experiment: Adipogenetic activity in mouse 3T3L1 cells assessed as increase in triglyceride level at 30 uM relative to control; assay type: functional
[6] = Cytotoxicity against mouse 3T3L1 cells assessed as cell viability at 30 uM by CCK8 assay relative to control; assay type: cell-based; details: 3T3-L1 cells, read-out: Activity
[7] = Cytotoxicity against mouse 3T3L1 cells assessed as cell viability at 3 uM by CCK8 assay relative to control; assay type: cell-based; details: 3T3-L1 cells, read-out: Activity
3T3-L1 [8] = experiment: Increase of aP2 mRNA expression in mouse 3T3L1 cells at 3 uM by RT-PCR analysis relative to beta-actin mRNA level; assay type: functional
3T3-L1 [9] = experiment: Increase of C/EBPalpha mRNA expression in mouse 3T3L1 cells at 10 uM by RT-PCR analysis relative to beta-actin mRNA level; assay type: functional
3T3-L1 [10] = experiment: Increase of GLUT4 mRNA expression in mouse 3T3L1 cells at 30 uM by RT-PCR analysis relative to beta-actin mRNA level; assay type: functional
3T3-L1 [11] = experiment: Increase of GLUT4 mRNA expression in mouse 3T3L1 cells at 3 uM by RT-PCR analysis relative to beta-actin mRNA level; assay type: functional
3T3-L1 [12] = experiment: Increase of C/EBPbeta mRNA expression in mouse 3T3L1 cells at 10 uM by RT-PCR analysis relative to beta-actin mRNA level; assay type: functional
3T3-L1 [13] = experiment: Increase of 2-deoxyglucose uptake in mouse 3T3L1 cells using 2-deoxy-D-(2,6-3H)-glucose after 2 hrs by liquid scintillation counting; assay type: functional, cell-based
3T3-L1 [14] = experiment: Increase of C/EBPalpha mRNA expression in mouse 3T3L1 cells at 30 uM by RT-PCR analysis relative to beta-actin mRNA level; assay type: functional
3T3-L1 [15] = experiment: Increase of aP2 mRNA expression in mouse 3T3L1 cells at 10 uM by RT-PCR analysis relative to beta-actin mRNA level; assay type: functional
3T3-L1 [16] = experiment: Increase of PPARgamma2 mRNA expression in mouse 3T3L1 cells at 10 uM by RT-PCR analysis relative to beta-actin mRNA level; assay type: functional
3T3-L1 [17] = experiment: Increase of C/EBPbeta mRNA expression in mouse 3T3L1 cells at 3 uM by RT-PCR analysis relative to beta-actin mRNA level; assay type: functional
[18] = molecular target: T1, Peroxisome proliferator-activated receptor gamma (Homo sapiens) (UniProt P37231); experiment: Agonist activity at PPARgamma (unknown origin) at 0.01 to 100 uM by nuclear receptor cofactor assay
T1 sequence (whole entry): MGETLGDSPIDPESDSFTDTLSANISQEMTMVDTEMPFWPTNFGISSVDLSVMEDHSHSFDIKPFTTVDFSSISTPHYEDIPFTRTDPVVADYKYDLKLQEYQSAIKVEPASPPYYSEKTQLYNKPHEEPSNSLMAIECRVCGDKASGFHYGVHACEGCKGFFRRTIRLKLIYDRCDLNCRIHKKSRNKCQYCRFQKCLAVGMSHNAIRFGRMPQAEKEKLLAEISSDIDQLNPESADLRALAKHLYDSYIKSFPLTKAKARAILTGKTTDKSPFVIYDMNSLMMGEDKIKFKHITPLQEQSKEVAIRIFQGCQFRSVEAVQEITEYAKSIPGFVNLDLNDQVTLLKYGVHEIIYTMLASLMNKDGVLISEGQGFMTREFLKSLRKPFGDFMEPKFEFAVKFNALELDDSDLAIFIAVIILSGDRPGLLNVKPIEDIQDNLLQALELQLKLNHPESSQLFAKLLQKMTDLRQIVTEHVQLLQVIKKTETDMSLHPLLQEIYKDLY

3T3-L1 [19] = experiment: Increase of C/EBPalpha mRNA expression in mouse 3T3L1 cells at 3 uM by RT-PCR analysis relative to beta-actin mRNA level; assay type: functional
3T3-L1 [20] = experiment: Increase of C/EBPdelta mRNA expression in mouse 3T3L1 cells at 3 uM by RT-PCR analysis relative to beta-actin mRNA level; assay type: functional
3T3-L1 [21] = experiment: Increase of adiponectin mRNA expression in mouse 3T3L1 cells at 3 uM by RT-PCR analysis relative to beta-actin mRNA level; assay type: functional
3T3-L1 [22] = experiment: Increase of C/EBPdelta mRNA expression in mouse 3T3L1 cells at 10 uM by RT-PCR analysis relative to beta-actin mRNA level; assay type: functional
3T3-L1 [23] = experiment: Increase of PPARgamma2 mRNA expression in mouse 3T3L1 cells at 3 uM by RT-PCR analysis relative to beta-actin mRNA level; assay type: functional
3T3-L1 [24] = experiment: Increase of PPARgamma2 mRNA expression in mouse 3T3L1 cells at 30 uM by RT-PCR analysis relative to beta-actin mRNA level; assay type: functional
3T3-L1 [25] = experiment: Increase of C/EBPdelta mRNA expression in mouse 3T3L1 cells at 30 uM by RT-PCR analysis relative to beta-actin mRNA level; assay type: functional
3T3-L1 [26] = experiment: Increase of aP2 mRNA expression in mouse 3T3L1 cells at 30 uM by RT-PCR analysis relative to beta-actin mRNA level; assay type: functional
3T3-L1 [27] = experiment: Increase of C/EBPbeta mRNA expression in mouse 3T3L1 cells at 30 uM by RT-PCR analysis relative to beta-actin mRNA level; assay type: functional
3T3-L1 [28] = experiment: Increase of adiponectin mRNA expression in mouse 3T3L1 cells at 10 uM by RT-PCR analysis relative to beta-actin mRNA level; assay type: functional
3T3-L1 [29] = experiment: Increase of GLUT4 mRNA expression in mouse 3T3L1 cells at 10 uM by RT-PCR analysis relative to beta-actin mRNA level; assay type: functional
3T3-L1 [30] = experiment: Increase of adiponectin mRNA expression in mouse 3T3L1 cells at 30 uM by RT-PCR analysis relative to beta-actin mRNA level; assay type: functional
3T3-L1 [31] = experiment: Increase of 2-deoxyglucose uptake in mouse 3T3L1 cells using 2-deoxy-D-(2,6-3H)-glucose at 1 uM after 2 hrs by liquid scintillation counting; assay type: functional, cell-based

Which results are given for `CC(C)NC(=O)/C=C/C=C/CC/C=C/c1ccc2c(c1)OCO2`?
viability at 10 µM [1]: 96.1%; viability at 0.3 µM [2]: 95%; Activity (3T3-L1 [3]): 39.4%; viability at 1 µM [4]: 94.8%; Activity (3T3-L1 [5]): 43.1%; viability at 30 µM [6]: 102%; viability at 3 µM [7]: 96.6%

Which viability at 10 µM [1] does the source give for `CCCCCNC(=O)/C=C/C=C/CC/C=C/c1ccc2c(c1)OCO2` here?
Its viability at 10 µM is 99%.

What about the Ratio (3T3-L1 [8]) of the same compound?
Its Ratio is 0.86.

What about the Ratio (3T3-L1 [9]) of the same compound?
The Ratio was 1.27.

What about the viability at 0.3 µM [2] of the same compound?
The viability at 0.3 µM was 98.7%.

What about the Ratio (3T3-L1 [10]) of the same compound?
The Ratio was 4.22.

What about the Ratio (3T3-L1 [11]) of the same compound?
Its Ratio is 1.55.

And the Activity (3T3-L1 [3])?
Its Activity is 55.4%.

What about the Ratio (3T3-L1 [12]) of the same compound?
The Ratio was 1.6.

And the viability at 1 µM [4]?
Its viability at 1 µM is 102%.

What about the Activity (3T3-L1 [13]) of the same compound?
Its Activity is “Dose-dependent effect”.

What about the Ratio (3T3-L1 [14]) of the same compound?
The Ratio was 4.91.

And the Ratio (3T3-L1 [15])?
The Ratio was 3.18.

What about the Ratio (3T3-L1 [16]) of the same compound?
Its Ratio is 1.76.

What about the Ratio (3T3-L1 [17]) of the same compound?
The Ratio was 0.98.

And the Activity [18]?
The Activity was “Active”.

What about the Ratio (3T3-L1 [19]) of the same compound?
The Ratio was 0.81.

And the Ratio (3T3-L1 [20])?
Its Ratio is 0.79.

What about the Activity (3T3-L1 [5]) of the same compound?
Its Activity is 58.8%.

And the Ratio (3T3-L1 [21])?
Its Ratio is 1.04.

What about the Ratio (3T3-L1 [22]) of the same compound?
Its Ratio is 1.5.

And the Ratio (3T3-L1 [23])?
The Ratio was 0.88.

And the viability at 30 µM [6]?
Its viability at 30 µM is 107%.

What about the Ratio (3T3-L1 [24]) of the same compound?
The Ratio was 2.57.

And the Ratio (3T3-L1 [25])?
Its Ratio is 2.64.

And the viability at 3 µM [7]?
Its viability at 3 µM is 105%.

And the Ratio (3T3-L1 [26])?
The Ratio was 3.09.

What about the Ratio (3T3-L1 [27]) of the same compound?
Its Ratio is 2.91.

What about the Ratio (3T3-L1 [28]) of the same compound?
The Ratio was 1.3.

And the Ratio (3T3-L1 [29])?
Its Ratio is 3.89.

And the Ratio (3T3-L1 [30])?
Its Ratio is 2.16.

Which Activity (3T3-L1 [31]) does the source give for `Cc1c(C)c2c(c(C)c1O)CCC(C)(COc1ccc(CC3SC(=O)NC3=O)cc1)O2` (stereo not drawn) here?
Its Activity is “Active”.

For `CCCNC(=O)/C=C/C=C/CC/C=C/c1ccc2c(c1)OCO2`, which viability at 10 µM [1] is on record?
Its viability at 10 µM is 87.5%.

What about the viability at 0.3 µM [2] of the same compound?
Its viability at 0.3 µM is 101%.

What about the Activity (3T3-L1 [3]) of the same compound?
The Activity was 42.7%.

What about the viability at 1 µM [4] of the same compound?
Its viability at 1 µM is 104%.

What about the Activity (3T3-L1 [5]) of the same compound?
Its Activity is 18.7%.

What about the viability at 30 µM [6] of the same compound?
Its viability at 30 µM is 68.4%.

What about the viability at 3 µM [7] of the same compound?
The viability at 3 µM was 102%.

For `O=C(/C=C/C=C/CC/C=C/c1ccc2c(c1)OCO2)N1CCCCC1` [DEHYDROPIPERNOLINE], which Activity (3T3-L1 [3]) is on record?
Its Activity is 21.6%.

For `CC(C)COC(=O)/C=C/C=C/CC/C=C/c1ccc2c(c1)OCO2`, which Activity (3T3-L1 [3]) is on record?
Its Activity is 20%.

And the Activity (3T3-L1 [5])?
The Activity was 21.7%.

And the viability at 30 µM [6]?
The viability at 30 µM was 21.7%.

With `COC(=O)/C=C/C=C/CC/C=C/c1ccc2c(c1)OCO2` as the compound, how does the Activity (3T3-L1 [3]) read?
The Activity was 4.6%.

What about the Activity (3T3-L1 [5]) of the same compound?
Its Activity is 4%.

What does the source list for `CC(C)CNC(=O)CCCCCCCCc1ccc2c(c1)OCO2`?
viability at 10 µM [1]: 111%; viability at 0.3 µM [2]: 99.3%; Activity (3T3-L1 [3]): 13.3%; viability at 1 µM [4]: 105%; Activity (3T3-L1 [5]): 31.9%; viability at 30 µM [6]: 109%; viability at 3 µM [7]: 104%

Which Activity (3T3-L1 [3]) does the source give for `OC/C=C/C=C/CC/C=C/c1ccc2c(c1)OCO2` here?
Its Activity is 0.6%.

Which viability at 10 µM [1] does the source give for `CC(C)CNC(=O)/C=C/C=C/CC/C=C/c1ccc2c(c1)OCO2` [RETROFRACTAMIDE A] here?
Its viability at 10 µM is 108%.

And the viability at 0.3 µM [2]?
Its viability at 0.3 µM is 100%.

And the Activity (3T3-L1 [3])?
The Activity was 38%.

And the viability at 1 µM [4]?
Its viability at 1 µM is 98.1%.

And the Activity (3T3-L1 [5])?
The Activity was 22.9%.

And the viability at 30 µM [6]?
The viability at 30 µM was 109%.

What about the viability at 3 µM [7] of the same compound?
Its viability at 3 µM is 109%.

For `CCCCNC(=O)/C=C/C=C/CC/C=C/c1ccc2c(c1)OCO2`, which viability at 10 µM [1] is on record?
The viability at 10 µM was 69.3%.

What about the viability at 0.3 µM [2] of the same compound?
The viability at 0.3 µM was 96.2%.

And the Activity (3T3-L1 [3])?
Its Activity is 55.9%.

What about the viability at 1 µM [4] of the same compound?
Its viability at 1 µM is 94.8%.

What about the Activity (3T3-L1 [5]) of the same compound?
Its Activity is 46.2%.

What about the viability at 30 µM [6] of the same compound?
Its viability at 30 µM is 78.7%.

And the viability at 3 µM [7]?
Its viability at 3 µM is 87.1%.
